In ChEMBL document CHEMBL4196087 (Eur J Med Chem, 2018):
In brackets after ≈: the same amount, converted by molar mass.

Columns and labels:
Type in all cases: functional
[1] = test system: T47D; test: Growth inhibition of human T47D cells at 10^-5 M incubated for 48 hrs by sulforhodamine B assay relative to control; settings: read-out: GI
[2] = test system: MOLT-4; test: Growth inhibition of human MOLT4 cells at 10^-5 M incubated for 48 hrs by sulforhodamine B assay relative to control; settings: MOLT-4, 48 h, read-out: GI
[3] = test system: SK-OV-3; test: Growth inhibition of human SKOV3 cells at 10^-5 M incubated for 48 hrs by sulforhodamine B assay relative to control; settings: SK-OV-3, 48 h, read-out: GI
[4] = test system: HOP-62; test: Growth inhibition of human HOP62 cells at 10^-5 M incubated for 48 hrs by sulforhodamine B assay relative to control; settings: HOP-62, 48 h, read-out: GI
[5] = test system: PC-3; test: Growth inhibition of human PC3 cells at 10^-5 M incubated for 48 hrs by sulforhodamine B assay relative to control; settings: PC-3, 48 h, read-out: GI
[6] = test system: HOP-92; test: Growth inhibition of human HOP92 cells at 10^-5 M incubated for 48 hrs by sulforhodamine B assay relative to control; settings: HOP-92, 48 h, read-out: GI
[7] = test system: LOX IMVI; test: Growth inhibition of human LOXIMVI cells at 10^-5 M incubated for 48 hrs by sulforhodamine B assay relative to control; settings: read-out: GI
[8] = test system: UO-31; test: Growth inhibition of human UO31 cells at 10^-5 M incubated for 48 hrs by sulforhodamine B assay relative to control; settings: UO-31, 48 h, read-out: GI
[9] = test system: Escherichia coli; test: Antibacterial activity against Escherichia coli at 37 degC measured after 24 hrs by agar disc diffusion method
[10] = test system: Bacillus subtilis; test: Antibacterial activity against Bacillus subtilis at 37 degC measured after 24 hrs by agar disc diffusion method
[11] = test system: Staphylococcus aureus; test: Antibacterial activity against Staphylococcus aureus at 37 degC measured after 24 hrs by agar disc diffusion method
[12] = test system: Pseudomonas aeruginosa; test: Antibacterial activity against Pseudomonas aeruginosa at 37 degC measured after 24 hrs by agar disc diffusion method
[13] = test system: SF-539; test: Growth inhibition of human SF539 cells at 10^-5 M incubated for 48 hrs by sulforhodamine B assay relative to control; settings: SF-539, 48 h, read-out: GI
[14] = test system: K562; test: Growth inhibition of human K562 cells at 10^-5 M incubated for 48 hrs by sulforhodamine B assay relative to control; settings: K562, 48 h, read-out: GI
[15] = test system: NCI-H226; test: Growth inhibition of human NCI-H226 cells at 10^-5 M incubated for 48 hrs by sulforhodamine B assay relative to control; settings: NCI-H226, 48 h, read-out: GI
[16] = test system: RPMI-8226; test: Growth inhibition of human RPMI8226 cells at 10^-5 M incubated for 48 hrs by sulforhodamine B assay relative to control; settings: RPMI-8226, 48 h, read-out: GI
[17] = test system: SNB-75; test: Growth inhibition of human SNB75 cells at 10^-5 M incubated for 48 hrs by sulforhodamine B assay relative to control; settings: SNB-75, 48 h, read-out: GI
[18] = test system: CCRF-CEM; test: Growth inhibition of human CCRF-CEM cells at 10^-5 M incubated for 48 hrs by sulforhodamine B assay relative to control; settings: read-out: GI
[19] = test system: SK-MEL-5; test: Growth inhibition of human SK-MEL-5 cells at 10^-5 M incubated for 48 hrs by sulforhodamine B assay relative to control; settings: SK-MEL-5, 48 h, read-out: GI
[20] = test system: MDA-MB-231; test: Growth inhibition of human MDA-MB-231 cells at 10^-5 M incubated for 48 hrs by sulforhodamine B assay relative to control; settings: MDA-MB-231, 48 h, read-out: GI
[21] = test system: MDA-MB-468; test: Growth inhibition of human MDA-MB-468 cells at 10^-5 M incubated for 48 hrs by sulforhodamine B assay relative to control; settings: MDA-MB-468, 48 h, read-out: GI
[22] = test system: HL-60(TB); test: Growth inhibition of human HL-60(TB) cells at 10^-5 M incubated for 48 hrs by sulforhodamine B assay relative to control; settings: HL-60, 48 h, read-out: GI
[23] = test system: IGROV-1; test: Growth inhibition of human IGROV1 cells at 10^-5 M incubated for 48 hrs by sulforhodamine B assay relative to control; settings: IGROV-1, 48 h, read-out: GI
[24] = test system: MCF7; test: Growth inhibition of human MCF7 cells at 10^-5 M incubated for 48 hrs by sulforhodamine B assay relative to control; settings: MCF7, 48 h, read-out: GI
[25] = test system: A498; test: Growth inhibition of human A498 cells at 10^-5 M incubated for 48 hrs by sulforhodamine B assay relative to control; settings: A498, 48 h, read-out: GI
[26] = test system: Pseudomonas aeruginosa; test: Antibacterial activity against Pseudomonas aeruginosa at 37 degC measured after 24 hrs by CLSI M7-A4 protocol based method
[27] = test system: Bacillus subtilis; test: Antibacterial activity against Bacillus subtilis at 37 degC measured after 24 hrs by CLSI M7-A4 protocol based method

SMILES | inhibition of growth at 10 µM [1] | inhibition of growth at 10 µM [2] | inhibition of growth at 10 µM [4] | inhibition of growth at 10 µM [5] | inhibition of growth at 10 µM [6] | inhibition of growth at 10 µM [7] | inhibition of growth at 10 µM [8] | diameter of the inhibition zone (DIZ) [9] | diameter of the inhibition zone (DIZ) [10] | diameter of the inhibition zone (DIZ) [11] | diameter of the inhibition zone (DIZ) [12] | inhibition of growth at 10 µM [13] | inhibition of growth at 10 µM [14] | inhibition of growth at 10 µM [15] | inhibition of growth at 10 µM [16] | inhibition of growth at 10 µM [17] | inhibition of growth at 10 µM [18] | inhibition of growth at 10 µM [19] | inhibition of growth at 10 µM [20] | inhibition of growth at 10 µM [21] | further results
CSc1nnc(CN2CCN(c3cc4c(cc3F)c(=O)c(C(=O)O)cn4C3CC3)CC2)o1 | 21.1% | < 20% | < 20% | 24.9% | < 20% | < 20% | < 20% |  |  |  |  |  |  |  |  |  |  |  |  |  | inhibition of growth at 10 µM [3]: < 20%
O=C(O)c1cn(C2CC2)c2cc(N3CCNCC3)c(F)cc2c1=O [CIPROFLOXACIN] |  |  |  |  |  |  |  | 33 mm | 38 mm | 31 mm | 36 mm |  |  |  |  |  |  |  |  |  | 
NNC(=O)CN1CCN(c2cc3c(cc2F)c(=O)c(C(=O)O)cn3C2CC2)CC1 | < 20% | < 20% | < 20% | < 20% | < 20% | < 20% | < 20% | 28 mm | 33 mm | 28 mm | 30 mm | < 20% | < 20% | < 20% | < 20% | < 20% | < 20% | < 20% | < 20% | < 20% | inhibition of growth at 10 µM [22]: 20.5%; inhibition of growth at 10 µM [23]: < 20%; inhibition of growth at 10 µM [24]: < 20%; inhibition of growth at 10 µM [25]: < 20%
O=C(CN1CCN(c2cc3c(cc2F)c(=O)c(C(=O)O)cn3C2CC2)CC1)N/N=C/c1ccccc1Cl |  |  |  |  |  |  |  | 19 mm | 22 mm | 20 mm | 22 mm |  |  |  |  |  |  |  |  |  | 
O=C(CN1CCN(c2cc3c(cc2F)c(=O)c(C(=O)O)cn3C2CC2)CC1)N/N=C/c1ccc(Cl)cc1 | < 20% | < 20% | < 20% | < 20% | < 20% | < 20% | < 20% | 28 mm | 30 mm | 28 mm | 30 mm | < 20% | < 20% | < 20% | < 20% | < 20% | < 20% | < 20% | < 20% | < 20% | MIC [26]: 60 µg/mL (≈ 114 µM); inhibition of growth at 10 µM [22]: < 20%; inhibition of growth at 10 µM [23]: < 20%; MIC [27]: 62 µg/mL (≈ 118 µM); inhibition of growth at 10 µM [24]: < 20%; inhibition of growth at 10 µM [25]: 26.7%
COc1cc(/C=N/NC(=O)CN2CCN(c3cc4c(cc3F)c(=O)c(C(=O)O)cn4C3CC3)CC2)ccc1O |  |  |  |  |  |  |  | 18 mm | 20 mm | 16 mm | 18 mm |  |  |  |  |  |  |  |  |  | 
O=C(CN1CCN(c2cc3c(cc2F)c(=O)c(C(=O)O)cn3C2CC2)CC1)N/N=C/c1cccnc1 |  |  |  |  |  |  |  | 29 mm | 32 mm | 30 mm | 31 mm |  |  |  |  |  |  |  |  |  | MIC [26]: 58 µg/mL (≈ 118 µM); MIC [27]: 60 µg/mL (≈ 122 µM)
COc1ccc(/C=N/NC(=O)CN2CCN(c3cc4c(cc3F)c(=O)c(C(=O)O)cn4C3CC3)CC2)cc1 | < 20% | < 20% | < 20% | < 20% | < 20% | 23.2% | < 20% | 24 mm | 26 mm | 25 mm | 27 mm | < 20% | < 20% | < 20% | < 20% | < 20% | < 20% | < 20% | < 20% | < 20% | inhibition of growth at 10 µM [22]: < 20%; inhibition of growth at 10 µM [23]: < 20%; inhibition of growth at 10 µM [24]: < 20%; inhibition of growth at 10 µM [25]: < 20%
